The source of these data is patent publication US7871794B2, “Enhanced cell-free synthesis of active proteins containing disulfide bonds” (The Board of Trustees of the Leland Stanford Junior …, priority 2007, dated 2011).

The structures appear in SMILES notation.

The test system of one assay is reduction of GSSG. Kind of assay: Assay for the reduction of oxidized glutathione in PANOx-SP cell-free reactions. The class given is biochemical, E. coli. As for the experimental part:
For determining the effect of pH and IAM concentration on GSSG stabilization, the pH of S30 extracts was adjusted by first adding a small volume of 10 M KOH or HCl to the bottom of an Eppendorf tube. A much larger volume of S30 extract was then rapidly mixed with the small volume of acid or base. The pH was measured with a standardized micro-pH probe (Model 9810BN, Orion, Beverly, Mass.). Several 15 μL PANOx-SP reactions supplemented with 5 mM GSSG and the pK7CAT plasmid were prepared at each pH and IAM concentration. Single reactions were terminated at 15, 38, 60, 90, 120, and 180 minutes for each condition, and the concentration of SH groups was measured as described below.
Assay for the Reduction of Oxidized Glutathione. The reduction of oxidized glutathione was measured by monitoring the increase in concentration of sulfhydryl groups over time. The entire 15 μL in vitro synthesis reaction was diluted with an equal volume of 10% trichloroacetic acid and centrifuged for 10 minutes at 12,000×g and 4° C. Ten microliters of the supernatant was added to wells of a 96-well microtiter plate. To each well, 90 μL of 1 M Tris-HCl (pH 7.8) with 0.44 mg/mL DTNB (5,5′-dithiobis-2-nitrobenzoic acid, TCI America) was added. After 3 minutes at room temperature, the absorbance at 412 nm was measured and the concentration of free thiols determined by comparison to a standard curve determined with GSH solutions of known concentration.

The target of assay [1] is T1, thioredoxin reductase (TrxB) (Escherichia coli, UniProt P0A9P4).
T1 construct: made in house; host or cells: cell-free (in vitro) synthesis reaction, E. coli extract
T1 sequence (P0A9P4 whole entry): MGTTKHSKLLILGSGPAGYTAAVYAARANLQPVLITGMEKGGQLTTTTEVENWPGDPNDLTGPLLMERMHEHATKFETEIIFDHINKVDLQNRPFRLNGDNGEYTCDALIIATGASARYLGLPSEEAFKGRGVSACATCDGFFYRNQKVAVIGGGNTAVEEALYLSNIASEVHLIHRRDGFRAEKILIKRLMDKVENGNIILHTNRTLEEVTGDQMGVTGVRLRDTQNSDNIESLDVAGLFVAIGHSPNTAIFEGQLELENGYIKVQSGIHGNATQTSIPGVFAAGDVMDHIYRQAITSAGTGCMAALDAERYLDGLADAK
As to the kind of experiment: Assay for thioredoxin reductase activity after IAM treatment at various pHs. The class given is biochemical, E. coli. The following applies: 7 mM IAM, 30 minutes at room temperature. On the procedure:
Assay for Thioredoxin Reductase Activity. Thioredoxin reductase was produced in in vitro synthesis reactions as described previously (Knapp and Swartz (2004) FEBS Lett 559:66-70). The pHs of aliquots of the unpurified reaction product were adjusted to the desired values with small volumes of concentrated KOH or HCl. These aliquots were then mixed with a small volume of IAM concentrate to obtain a final IAM concentration of 7 mM. These samples were incubated at room temperature for 30 minutes, and then the thioredoxin reductase activity of the samples was measured. The activity assay for thioredoxin reductase contained the following components: 50 mM NaH2PO4 pH 7.6, 1.5 mM EDTA, 10 mM glucose 6-phosphate, 200 μM DTNB, 300 μM NADPH, 3 μM E. coli thioredoxin (EMD Biosciences; Darmstadt, Germany), and 0.2 U glucose 6-phosphate dehydrogenase (Sigma). Approximately 500 ng of thioredoxin reductase was added to 1 mL of the assay mixture and the rate of increase in absorbance at 412 nm was measured for 90 seconds at 37° C. DTNB produces two molecules of nitrothiobenzoate when it is reduced. The extinction coefficient of nitrothiobenzoate (13,600 M^−1 cm^−1) was used to calculate the rate of reaction.

`NC(=O)CI` [IAM, iodoacetamide]: in the assay on reduction of GSSG (KGK10 extract), the “effect on sulfhydryl groups at IAM concentrations greater than 50 μM” value is recorded as “slow rate of oxidation of sulfhydryls”. Further, the “IAM concentration sufficient to eliminate the reduction of GSSG” value with reduction of GSSG (KGK10 extract, IAM treatment near physiological pH) is 50 µM. In addition, the “IAM needed to stabilize the oxidized glutathione buffer, KGK10 extract versus KC6 extract” value in the assay on reduction of GSSG (in vitro synthesis reactions containing 5 mM GSSG) is “Twenty-fold less”. Also, the “pH at which IAM inactivation of TrxB begins to lose its effectiveness” value in assay [1] is roughly 5.8.
